Laboratory results taken from PubChem BioAssay (NCI).
Values joined by “and” are separate entries in the source; they are usually repeats but may differ in a detail not shown here. Equal values may be shown once.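 48-hour exposure; five concentrations; linearly interpolated endpoints. Abbreviation: GI50, concentration required for 50% inhibition of growth. TGI: total growth inhibition.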

Test system: MDA-MB-468 breast
Assay: NCI anticancer screen, dose series, 48 h

Structure (SMILES)	GI50	TGI
O=C(CCN1CCOCC1)Nc1ccc(Cn2nnc3c2C(=O)c2nnn(Cc4ccc(NC(=O)CCN5CCOCC5)cc4)c2C3=O)cc1	0.257 µM	0.627 µM
N#C[Se]CCN1C(=O)c2ccccc2C1=O	2.01 µM	6.99 µM
CCN1CCN(c2ccc(NC(=O)Nc3ccc4c(ccn4-c4ccnc(C(=O)NC)c4)c3)cc2C(F)(F)F)CC1	> 14.3 µM	> 14.3 µM
COc1ccc(-n2c(=O)c3ccccc3n(Cc3ccc(C(=O)NO)cc3)c2=O)cc1	1.44 µM	3.49 µM
Cc1cccc(Oc2ccc(Nc3ncnc4ccc(NC(=O)CN(C)C)cc34)cc2Cl)c1	0.18 µM	1.38 µM
CC[C@]12C=CCN3CC[C@@]4(c5ccc(OC)cc5N(C)[C@H]4[C@@](O)(C(=O)OC)[C@@H]1OC(=O)CCCN1CCN(CCCC(=O)O[C@@H]4[C@]5(CC)C=CCN6CC[C@@]7(c8ccc(OC)cc8N(C)[C@H]7[C@@]4(O)C(=O)OC)[C@@H]65)CC1)[C@@H]32	0.252 µM	0.73 µM
COc1cc(/C=C/c2cc(/C=C/c3ccc(O)c(OC)c3)n(C(=O)Nc3ccc(C)cc3)n2)ccc1O	0.301 µM	1.71 µM
O=C(O)CSc1cc(NS(=O)(=O)c2ccc(Br)cc2)c2ccccc2c1O	1.87 µM	4.34 µM
CC(C)c1ccc2c(c1)CCC1C2CCCC1(C)NCc1ccccc1 (configuration not stated)	1.9 µM	4.16 µM
O=c1c(Oc2ccc(F)cc2F)cc2cnc(NC3CCOCC3)nc2n1C1CC1	> 25 µM	> 25 µM
O=C(NO)c1ccc(CNc2cccc3nc(C4CC4)n(-c4ccccc4)c(=O)c23)cc1	1.88 µM	5.16 µM
OCc1ccc(N2CCc3ccc(F)cc3C2)cc1Cl	< 0.0129 µM	0.0351 µM
Cc1ccc(-c2nc([P+](c3ccccc3)(c3ccccc3)c3ccccc3)c(N3CCOCC3)o2)cc1	0.248 µM	0.87 µM
CNS(=O)(=O)Nc1nccc(Cc2c(C)c3ccc(Oc4ncccn4)cc3oc2=O)c1F	3.46 µM and > 5.44 µM	82.6 µM and > 10 µM
COc1ccc(-c2c(Nc3ccccn3)nc3c(C4=CCCCC4)c(-c4ccccc4)[nH]n3c2=O)cc1	1.91 µM	8.65 µM
CCOC(=O)C#Cc1c(C(=O)OCC)nnn1[C@@H]1O[C@H](COC)[C@@H](OC)[C@H]1OC	2.13 µM	5.43 µM
CN(C)CCCC1(c2ccc(F)cc2)OCc2cc(-c3csc4ccccc34)ccc21 (configuration not stated)	1.54 µM	3.12 µM
COc1ccc([C@@H]2[C@@H](Oc3ccccc3)C(=O)N2c2cc(OC)c(OC)c(OC)c2)cc1F	0.111 µM	> 100 µM
Nc1cc(C(F)(F)F)c(-c2nc(N3CCOCC3)nc(N3CCOCC3)n2)cn1	0.18 µM	0.897 µM
O=C1NC(=NCc2cccs2)O/C1=C\c1ccc2ncccc2c1	3.41 µM	13.9 µM
Oc1c(Br)cc(Cl)cc1C(c1cc(Cl)cc(Br)c1O)C(Cl)(Cl)Cl	2.2 µM	7.25 µM

Structure (SMILES)	GI50	TGI
C/C(=C\c1csc(C)n1)[C@@H]1C[C@@H]2O[C@]2(C)CCC[C@H](C)[C@H](O)[C@@H](C)C(=O)C(C)(C)[C@@H](O)CC(=O)N1	0.000233 µM	0.00058 µM
COc1cc(/C=C/C(=O)c2nc3cc(F)ccc3nc2C)cc(OC)c1OC	2.75 µM	> 100 µM
FC(F)(F)c1cccc(CNC2CCN(CCc3ccccc3)CC2)c1	13.5 µM	30.2 µM
CC1=C(C(=O)Nc2ccc3[nH]ncc3c2)C(c2ccc(F)cc2)N=C(c2ccc(C(F)(F)F)nc2)N1 (configuration not stated)	5.65 µM	15.5 µM
COc1cc(NC(=O)COc2ccccc2)c(C(N)=O)cc1OC	0.848 µM	72.1 µM
COc1ccc(Cn2c(Br)c3c(c2-c2cc(OC)c(OC)c(OC)c2)CCc2sc(N)nc2-3)cc1	3.13 µM	41.9 µM
COc1ccccc1CNCCCN1C(=O)c2ccc3c4c(ccc(c24)C1=O)C(=O)N(CCCNCc1ccccc1OC)C3=O	0.138 µM	0.288 µM
CN(C)[C@@H]1C(=O)C(C(=O)NCc2nc3[nH]cnc(=S)c3[nH]2)=C(O)[C@@]2(O)C(=O)C3=C(O)c4c(O)cccc4[C@@](C)(O)[C@H]3C[C@@H]12	0.955 µM	> 100 µM
CN1CCN(c2ccc(NC(=O)Nc3ccc4c(ccn4-c4cccc(C(N)=O)n4)c3)cc2C(F)(F)F)CC1	4.3 µM	12.1 µM
O=S(=O)(Nc1ccccc1)c1ccc(C2CC3(Cl)C(Cl)=C(Cl)C2(Cl)C3(Cl)Cl)cc1 (configuration not stated)	2.64 µM	7.86 µM
CCN(CC)CCn1c2ccc(O)cc2c2sc3cc(OC)ccc3c(=O)c21	1.54 µM	3 µM
O=[N+]([O-])c1ccc(N/N=C\c2cc(Br)ccc2O)nc1	1.71 µM	4.32 µM
CN1CCN(C(=O)/C=C/c2ccc([N+](=O)[O-])o2)CC1	12.1 µM	28.5 µM
Oc1ccc(CSc2nnc(-c3ccc(Oc4ccccc4)cc3)o2)c2cccnc12	1.76 µM	> 100 µM
CN(C)c1ccc(/C=N/N=C(\C#N)[S][Sn]([Cl])([c]2ccccc2)[c]2ccccc2)cc1	0.48 µM	2 µM
Oc1ccc(CSc2nnc(-c3ccccc3)n2-c2ccccc2)c2cccnc12	0.497 µM	6.82 µM
CCN1CCN(CC(=O)Nc2nc3ccc(NCc4ccc(Br)cc4)cc3s2)CC1	1.74 µM	4.51 µM
O=C1[C@H](Cc2ccc(O)cc2)N2C(=O)CCN(C(=O)NCc3ccccc3)[C@H]2CN1Cc1cccc2ccccc12	5.66 µM	23.2 µM
O=C1C[C@@H]2OCC=C3C[N+]4([O-])CC[C@]56c7ccccc7N1[C@H]5[C@H]2[C@H]3C[C@@H]64 (some centres not stated)	> 100 µM	> 100 µM
CNCc1cccc2c1OCCOCCOCCNS(=O)(=O)c1ccc(cc1)-c1cnc(N)c(n1)C(=O)N2	1.51 µM	3.25 µM
